What is called melting point is the temperature, or range, at which the solid turns liquid. Consider `O=C(N[C@H](Cc1ccc(C(F)(F)F)cc1)[C@@H](O)c1ccc(F)cc1)c1csc2ccccc12` (racemic) [Example 46, N-[(1RS,2SR)-2-(4-fluorophenyl)-2-hydroxy-1-[4-(trifluoromethyl)benzyl]ethyl]-1-benzothiophene-3-carboxamide], for which the melting point lay in the range of 188 to 189 °C. Then `CC(=O)OCCOc1ccc([C@@H](O)[C@H](Cc2cccc(OC(F)(F)C(F)F)c2)NC(=O)c2cccc3c2C=CCCC3)cc1` (racemic) [Example 249, (4-{(1RS,2SR)-2-[(6,7-dihydro-5H-benzo[a][7]annulen-1-ylcarbonyl)amino]-1-hydroxy-3-[3-(1,1,2,2-tetrafluoroethoxy)phenyl]propyl}phenoxy)ethyl acetate], with 125 to 126 °C. Then `O=C(N[C@H](Cc1cccc(C(F)(F)F)c1)[C@@H](O)c1ccc(F)cc1)c1ccc(F)c2ccccc12` (racemic) [Example 137, 4-fluoro-N-((1RS,2SR)-2-(4-fluorophenyl)-2-hydroxy-1-((3-(trifluoromethyl)phenyl)methyl)ethyl)-1-naphthalenecarboxamide], with 193 to 194 °C; and `CC(C)(C)C(F)(F)c1ccc(C[C@@H](NC(=O)c2cccc3c2C=CCCC3)[C@@H](O)c2cccc(Cl)c2)cc1` (racemic) [Example 380, N-{(1RS,2SR)-2-(3-chlorophenyl)-1-[4-(1,1-difluoro-2,2-dimethylpropyl)benzyl]-2-hydroxyethyl}-6,7-dihydro-5H-benzo[a]cycloheptene-1-carboxamide], with 119 to 120 °C. `O=C(CCc1ccccc1)N[C@H](Cc1ccc(C(F)(F)F)cc1)[C@@H](O)c1ccoc1` (racemic) [Example 196, N-((1RS,2SR)-2-(3-furanyl)-2-hydroxy-1-((4-(trifluoromethyl)phenyl)methyl)ethyl)-3-phenylpropanamide] came in with a melting point of 134 to 135 °C. In turn, `O=C(N[C@H](Cc1ccc(C(F)(F)F)cc1)[C@@H](O)c1ccc(F)cc1)c1cccc2c1CCCCC2` (racemic) [Example 42, N-[(1RS,2SR)-2-(4-fluorophenyl)-2-hydroxy-1-[4-(trifluoromethyl)benzyl]ethyl]-6,7,8,9-tetrahydro-5H-benzo[a]cycloheptene-1-carboxamide] came in with a melting point of 210 to 211 °C. Then `CC(C)(C)OC(=O)N[C@H](Cc1cccc(OC(F)(F)C(F)F)c1)[C@@H](O)c1ccc(Oc2ccccn2)cc1` (racemic) [Example 257, tert-butyl (1RS,2SR)-2-hydroxy-2-[4-(pyridin-2-yloxy)phenyl]-1-[3-(1,1,2,2-tetrafluoroethoxy)benzyl]ethylcarbamate], with 130 to 131 °C; and `O=C(N[C@H](Cc1cccc(OC(F)(F)C(F)F)c1)[C@@H](O)c1ccc(F)cc1)c1cccc2c1OCCCO2` (racemic) [Example 128, N-[(1RS,2SR)-2-(4-fluorophenyl)-2-hydroxy-1-[3-(1,1,2,2-tetrafluoroethoxy)benzyl]ethyl]-3,4-dihydro-2H-1,5-benzodioxepine-6-carboxamide], with 147 to 148 °C.

On to `O=C(N[C@H](Cc1ccc(C(F)(F)F)cc1)[C@@H](O)c1cccc2ccccc12)c1ccc2ccccc2c1` (racemic) [Example 187, N-((1RS,2SR)-2-hydroxy-2-(1-naphthalenyl)-1-((4-(trifluoromethyl)phenyl)methyl)ethyl)-2-naphthalenecarboxamide], for which the melting point is 251 to 252 °C. As for `O=C(N[C@H](Cc1cccc(OC(F)(F)F)c1)[C@@H](O)c1ccc(F)cc1)c1cccc2c1C=CCCC2` (racemic) [Example 133, N-[(1RS,2SR)-2-(4-fluorophenyl)-2-hydroxy-1-[3-(trifluoromethoxy)benzyl]ethyl]-6,7-dihydro-5H-benzo[a]cycloheptene-1-carboxamide], the melting point lay in the range of 177 to 178 °C. Turning to `O=C(NC(Cc1ccc(C(F)(F)F)cc1)C(O)c1ccc(F)cc1)C1CCCCC1` (racemic) [Example 8, N-[2-(4-fluorophenyl)-2-hydroxy-1-[[4-(trifluoromethyl)phenyl]methyl]ethyl]cyclohexanecarboxamide], the melting point was 161 to 178 °C.

On to `O=C(N[C@H](Cc1ccc(F)cc1)[C@@H](O)c1ccc(C(F)(F)F)cc1)c1cccc2ccccc12` (racemic) [Example 212, N-((1RS,2SR)-1-((4-fluorophenyl)methyl)-2-hydroxy-2-(4-(trifluoromethyl)phenyl)ethyl)-1-naphthalenecarboxamide], for which the melting point lay in the range of 207 to 208 °C. In the case of `CC(C)c1ccc(C[C@@H](NC(=O)c2ccc(F)c3ccccc23)[C@@H](O)c2ccc(F)cc2)cc1` (racemic) [Example 154, 4-fluoro-N-[(1RS,2SR)-2-(4-fluorophenyl)-2-hydroxy-1-(4-isopropylbenzyl)ethyl]naphthalene-1-carboxamide], the melting point fell in the range of 189 to 192 °C. As to `O=C(N[C@H](Cc1cccc(OC(F)(F)C(F)F)c1)[C@@H](O)c1ccc(-c2cccc(Cl)c2)cc1)c1cccc2c1C=CCCC2` (racemic) [Example 295, N-[(1RS,2SR)-2-(3′-chloro[1,1′-biphenyl]-4-yl)-2-hydroxy-1-[3-(1,1,2,2-tetrafluoroethoxy)benzyl]ethyl]-6,7-dihydro-5H-benzo[a]cycloheptene-1-carboxamide], the melting point lay within 131 to 132 °C. `O=C(N[C@H](Cc1cccc(OC(F)(F)C(F)F)c1)[C@@H](O)c1ccc(F)nc1)c1ccc(F)c2ccccc12` (racemic) [Example 224, N-((1RS,2SR)-2-(6-fluoropyridin-3-yl)-2-hydroxy-1-((3-(1,1,2,2-tetrafluoroethoxy)phenyl)methyl)ethyl)-4-fluoro-1-naphthalenecarboxamide]: the melting point was 148 to 149 °C. `CC(C)C(F)(F)Cc1ccc(C[C@@H](NC(=O)OC(C)(C)C)[C@@H](O)c2cccc(Cl)c2)cc1` (racemic) [Example 352, tert-butyl N-[(1RS,2SR)-2-(3-chlorophenyl)-1-[4-(2,2-difluoro-3-methylbutyl)benzyl]-2-hydroxyethyl]carbamate] had a melting point of 139 to 141 °C. Compound `CC(C)(C)OC(=O)N[C@H](Cc1cccc(OC(F)(F)C(F)F)c1)[C@@H](O)c1ccc(Oc2ccccc2)cn1` (racemic) [Example 254, tert-butyl (1RS,2RS)-2-hydroxy-2-(5-phenoxypyridin-2-yl)-1-[3-(1,1,2,2-tetrafluoroethoxy)benzyl]ethylcarbamate] registered a melting point of 129 to 130 °C. Then `O=C(N[C@H](Cc1ccc(C(F)(F)F)cc1)[C@@H](O)c1ccc(F)cc1)c1ccc(Oc2ccc(Cl)cc2)cc1` (racemic) [Example 90, 4-(4-chlorophenoxy)-N-[(1RS,2SR)-2-(4-fluorophenyl)-2-hydroxy-1-[4-(trifluoromethyl)benzyl]ethyl]benzenecarboxamide], with 188 to 189 °C. Compound `O=C(N[C@H](Cc1ccc(C(F)(F)F)cc1)[C@@H](O)c1ccc(F)cc1)c1ccc2ccccc2c1` (racemic) [Example 63, N-((1RS,2SR)-2-(4-fluorophenyl)-2-hydroxy-1-((4-(trifluoromethyl)phenyl)methyl)ethyl)-2-naphthalenecarboxamide] showed a melting point of 174 to 175 °C. Compound `O=C(CCCc1ccccc1)N[C@H](Cc1cccc(C(F)(F)F)c1)[C@@H](O)c1ccc(F)cc1` (racemic) [Example 139, N-((1RS,2SR)-2-(4-fluorophenyl)-2-hydroxy-1-((3-(trifluoromethyl)phenyl)methyl)ethyl)-4-phenylbutyramide] returned a melting point of 110 to 111 °C. Then `O=C(NC(Cc1ccc(C(F)(F)F)cc1)C(O)c1ccc(F)cc1)c1ccccc1F` (racemic) [Example 18, 2-fluoro-N-[2-(4-fluorophenyl)-2-hydroxy-1-[[4-(trifluoromethyl)phenyl]methyl]ethyl]benzamide], with 115 to 117 °C. Turning to `CC(C)(C)C(F)(F)c1ccc(C[C@@H](NC(=O)c2ccc(F)c3ccccc23)[C@@H](O)c2cccc(Cl)c2)cc1` (racemic) [Example 379, N-{(1RS,2SR)-2-(3-chlorophenyl)-1-[4-(1,1-difluoro-2,2-dimethylpropyl)benzyl]-2-hydroxyethyl}-4-fluoro-1-naphthamide], the melting point is 104 to 106 °C. The compound `CCOc1ccc2ccccc2c1C(=O)N[C@H](Cc1ccc(C(F)(F)F)cc1)[C@@H](O)c1ccc(F)cc1` (racemic) [Example 83, 2-(ethyloxy)-N-((1RS,2SR)-2-(4-fluorophenyl)-2-hydroxy-1-((4-(trifluoromethyl)phenyl)methyl)ethyl)-1-naphthalenecarboxamide] came in with a melting point of 157 to 158 °C. Then `O=C(N[C@H](Cc1cc(OC(F)(F)C(F)F)no1)[C@@H](O)c1ccc(F)cc1)c1cccc2c1C=CCCC2` (racemic) [Example 320, N-[(1RS,2SR)-2-(4-fluorophenyl)-2-hydroxy-1-[[3-(1,1,2,2-tetrafluoroethoxy)isoxazol-5-yl]methyl]ethyl]-6,7-dihydro-5H-benzo[a]cycloheptene-1-carboxamide], with 127 to 128 °C; and `O=C(N[C@H](Cc1ccc(C(F)(F)F)cc1)[C@@H](O)c1ccc(F)cc1)C1CCCc2ccccc21` (mixture of isomers) [Example 41, N-[(1RS,2SR)-2-(4-fluorophenyl)-2-hydroxy-1-[4-(trifluoromethyl)benzyl]ethyl]-1,2,3,4-tetrahydronaphthalene-1-carboxamide], with 205 to 214 °C; and `O=C(N[C@H](Cc1cccc(OC(F)(F)C(F)F)c1)[C@@H](O)c1ccc(F)cc1)OCc1ccccc1` (racemic) [Example 287, benzyl N-[(1RS,2SR)-2-(4-fluorophenyl)-2-hydroxy-1-[3-(1,1,2,2-tetrafluoroethoxy)benzyl]ethyl]carbamate], with 136 to 137 °C. Consider `O=C(N[C@H](Cc1cccc(Oc2ccccc2)c1)[C@@H](O)c1ccc(F)cc1)c1ccc(F)c2ccccc12` (racemic) [Example 160, 4-fluoro-N-((1RS,2SR)-2-(4-fluorophenyl)-2-hydroxy-1-((3-(phenyloxy)phenyl)methyl)ethyl)-1-naphthalenecarboxamide], for which the melting point is 120 to 121 °C.

(Values after US6982348B2, “Aminoethanol derivatives” (Takeda Pharmaceutical Company Limited, priority 2001, dated 2006).)
